The term IC50 denotes the concentration that gives 50% inhibition. Read a high IC50 as weaker potency in that assay.

T1 sequence (Q05397 whole entry): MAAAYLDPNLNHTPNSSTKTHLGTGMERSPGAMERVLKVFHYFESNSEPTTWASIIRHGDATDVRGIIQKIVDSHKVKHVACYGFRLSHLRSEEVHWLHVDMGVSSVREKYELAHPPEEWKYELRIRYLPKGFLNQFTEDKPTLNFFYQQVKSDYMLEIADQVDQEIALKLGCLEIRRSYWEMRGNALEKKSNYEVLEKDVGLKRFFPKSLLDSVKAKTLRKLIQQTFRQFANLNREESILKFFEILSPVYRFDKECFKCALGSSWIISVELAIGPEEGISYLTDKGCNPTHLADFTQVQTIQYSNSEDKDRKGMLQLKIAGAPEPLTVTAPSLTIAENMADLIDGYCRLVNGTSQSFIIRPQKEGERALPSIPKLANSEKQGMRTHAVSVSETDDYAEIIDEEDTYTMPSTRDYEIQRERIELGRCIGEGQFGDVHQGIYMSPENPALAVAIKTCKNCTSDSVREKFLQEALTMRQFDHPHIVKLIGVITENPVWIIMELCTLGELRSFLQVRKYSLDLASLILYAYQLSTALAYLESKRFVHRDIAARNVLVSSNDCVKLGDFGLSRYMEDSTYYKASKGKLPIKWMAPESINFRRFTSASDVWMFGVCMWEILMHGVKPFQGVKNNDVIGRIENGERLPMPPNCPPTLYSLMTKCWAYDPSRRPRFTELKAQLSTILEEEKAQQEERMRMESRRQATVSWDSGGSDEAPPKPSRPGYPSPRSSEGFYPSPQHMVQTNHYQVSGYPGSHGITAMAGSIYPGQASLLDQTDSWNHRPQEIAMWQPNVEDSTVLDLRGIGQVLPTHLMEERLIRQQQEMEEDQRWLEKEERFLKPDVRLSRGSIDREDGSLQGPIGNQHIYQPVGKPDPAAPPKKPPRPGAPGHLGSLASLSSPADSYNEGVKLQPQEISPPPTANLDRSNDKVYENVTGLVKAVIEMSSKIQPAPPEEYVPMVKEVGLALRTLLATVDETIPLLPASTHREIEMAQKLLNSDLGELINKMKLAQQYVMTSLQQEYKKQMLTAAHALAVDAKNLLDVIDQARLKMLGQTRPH

The assay concerns the target T1, PTK2 (Homo sapiens, UniProt Q05397).
T1 construct: purchased Invitrogen PV3832
In words: PTK2 enzyme test, Assay 1 (DELFIA, PT60 antibody). It counts as biochemical. The following applies: 1 h pre-incubation, 1 h kinase reaction, values without *. On the procedure:
This test uses active PTK2 enzyme (Invitrogen Code PV3832) and poly-Glu-Tyr (4:1, Sigma P-0275) as the kinase substrate. The kinase activity is detected through the phosphorylation of the substrate in a DELFIA™ assay. The phosphorylated substrate is detected with the europium-labelled phosphotyrosine antibody PT60 (Perkin Elmer, No.: AD00400).
In order to determine concentration-activity curves with PTK2-inhibitors the compounds are serially diluted in 10% DMSO/H20 and 10 μL of each dilution are placed in each well of a 96-well microtitre plate (clear plate with a U-shaped base, Greiner No. 650101) (the inhibitors are tested in duplicates) and mixed with 10 μL/well of PTK2 kinase (0.01 μg/well). PTK2 kinase has been correspondingly diluted beforehand with kinase dilution buffer (20 mM TRIS/HCl pH 7.5, 0.1 mM EDTA, 0.1 mM EGTA, 0.286 mM sodium orthovanadate, 10% glycerol with the addition of freshly prepared BSA (fraction V, 1 mg/mL) and DTT (1 mM)). The test compound and the PTK2 kinase are pre-incubated for 1 h at RT and shaken at 500 revolutions per min. The reaction is started by the addition of 10 μL/well poly (Glu,Tyr) substrate (25 μg/well poly (Glu, Tyr), 0.05 μg/well biotinylated poly (Glu,Tyr) dissolved in 250 mM TRIS/HCl pH 7.5, 9 mM DTT)—the final concentration of DMSO is 2%. Then 20 μL of ATP Mix (30 mM TRIS/HCl pH 7.5, 0.02% Brij, 0.2 mM sodium orthovanadate, 10 mM magnesium acetate, 0.1 mM EGTA, 1× phosphatase inhibitor cocktail 1 (Sigma, No.: P2850), 50 μM ATP (Sigma, No.: A3377; 15 mM stock solution)) are added. After 1 h of kinase reaction (the plates are shaken at 500 rpm), the reaction is stopped by the addition of 12 μL/well 100 mM EDTA, pH 8.0 and shaken for a further 5 min at RT (500 rpm). 55 μL of the reaction mixture are transferred into a streptavidin plate (Strepta Well High Bind (transparent, 96-well) made by Roche, No.: 11989685001) and incubated for 1 h at RT (shaking at 500 rpm). Then the microtitre plate is washed three times with 200 μL/well D-PBS (Invitrogen, No. 14190). 100 μL of a solution containing DELFIA Eu-N1 Anti-Phosphotyrosine PT60 antibody (Perkin Elmer, No.: AD0040, diluted 1:2000 in DELFIA test buffer (Perkin Elmer, No.: 1244-111)) is then added and the mixture is incubated for 1 h at RT (shaking at 500 rpm). Then the plate is washed three times with 200 μL/well DELFIA washing buffer (Perkin Elmer, No.: 1244-114), 200 μL/well strengthening solution (Perkin Elmer, No.: 1244-105) are added and the mixture is incubated for 10 min at RT (shaking at 300 rpm).
The time-delayed europium fluorescence is then measured in a microtitre plate reader (VICTOR^3, Perkin Elmer). […] Wells that contain test buffer instead of enzyme are used as a control of the background kinase activity.
The IC50 values are determined from analyses of the concentration activity by iterative calculation with the aid of a sigmoid curve analysis algorithm (FIFTY, based on GraphPAD Prism Version 3.03) with a variable Hill coefficient.
`COc1cc(C(=O)NCCN(C)C)ccc1Nc1ncc(C(F)(F)F)c(O[C@@H]2CCCC[C@H]2N(C)S(C)(=O)=O)n1` [Example 111]: it took 0.36 nM to reach half-maximal inhibition (IC50).

Consider `COc1cc(C(=O)N[C@H]2CC[C@H](N3CCN(CC4CC4)CC3)CC2)c(F)cc1Nc1ncc(C(F)(F)F)c(O[C@@H]2Cc3ccccc3[C@H]2N(C)S(C)(=O)=O)n1` [Example 7], for which the midpoint of inhibition, the IC50, lay at 8 nM. To `COc1cc(C(=O)N[C@H]2CC[C@H](O)CC2)c(F)cc1Nc1ncc(C(F)(F)F)c(O[C@@H]2Cc3ccccc3[C@H]2N(C)S(C)(=O)=O)n1` [Example 10] belongs 7 nM; to `COc1cc(C(=O)NCC(O)CO)ccc1Nc1ncc(C(F)(F)F)c(O[C@@H]2Cc3ccccc3[C@H]2N(C)S(C)(=O)=O)n1` (some centres unmarked) [Example 12], 4 nM; to `COc1cc(C(=O)NN2CCN(C)CC2)c(F)cc1Nc1ncc(C(F)(F)F)c(O[C@@H]2CCC[C@H]2NS(C)(=O)=O)n1` [Example 98], 4 nM. For the molecule `COc1cc(C(=O)NN2CCN(C)CC2)c(Cl)cc1Nc1ncc(Cl)c(O[C@@H]2Cc3ccccc3[C@H]2N(C)S(C)(=O)=O)n1` [Example 63], half-maximal inhibition (IC50) was put at 3 nM. The IC50 values of the last two molecules are within 1.5-fold of each other.

Turning to `COc1cc(C(=O)NC[C@@H](O)CO)c(Cl)cc1Nc1ncc(Cl)c(O[C@@H]2Cc3ccccc3[C@H]2N(C)S(C)(=O)=O)n1` [Example 42], half-maximal inhibition (IC50) was put at 4 nM. `COc1cc(C(=O)NC2CCN(C)CC2)c(F)cc1Nc1ncc(C(F)(F)F)c(O[C@@H]2CCC[C@H]2NS(=O)(=O)C(F)(F)F)n1` [Example 107] came in with an IC50 of 103 nM. To `CCS(=O)(=O)N[C@@H]1CCC[C@H]1Oc1nc(Nc2cc(F)c(C(=O)NC3CCN(C)CC3)cc2OC)ncc1C(F)(F)F` [Example 44] belongs 6 nM. To `COc1cc(C(=O)NC2CCN(C)CC2)c(Cl)cc1Nc1ncc(Cl)c(O[C@@H]2Cc3ccccc3[C@H]2N(C)S(C)(=O)=O)n1` [Example 62] belongs 3 nM. The same measure for `COc1cc(C(=O)NCCCN(C)C)c(F)cc1Nc1ncc(Cl)c(O[C@@H]2Cc3ccccc3[C@H]2N(C)S(C)(=O)=O)n1` [Example 60]: 3 nM; for `COc1cc(C(=O)NC2CCN(C)CC2)c(Cl)cc1Nc1ncc(Cl)c(O[C@@H]2CCC[C@H]2N(C)S(C)(=O)=O)n1` [Example 84, 2-chloro-4-{5-chloro-4-[(1R,2R)-2-(methanesulphonyl-methyl-amino)-cyclopentyloxy]-pyrimidin-2-ylamino}-5-methoxy-N-(1-methyl-piperidin-4-yl)-benzamide]: 0.32 nM; for `COc1cc(C(=O)NC2CCN(C)CC2)c(Cl)cc1Nc1ncc(C(F)(F)F)c(O[C@@H]2CCC[C@H]2NS(=O)(=O)C2CC2)n1` [Example 48]: 22 nM.

Turning to `COc1cc(C(=O)NCCN(C)C)c(Cl)cc1Nc1ncc(C(F)(F)F)c(O[C@@H]2CCCC[C@H]2NS(C)(=O)=O)n1` [Example 108], it took 0.44 nM to reach half-maximal inhibition (IC50). This IC50 is about 50-fold lower than that of the molecule before. Molecule `COc1cc(C(=O)NCCN(C)C)c(Cl)cc1Nc1ncc(C(F)(F)F)c(O[C@@H]2CCCC[C@H]2N(C)S(C)(=O)=O)n1` [Example 109] gave an IC50 of 0.35 nM. Molecule `COc1cc(C(=O)NC2CCN(C)CC2)c(F)cc1Nc1ncc(C(F)(F)F)c(O[C@@H]2CCCC[C@H]2N(C)S(C)(=O)=O)n1` [Example 75, 2-fluoro-4-{4-[(1R,2R)-2-(methanesulphonyl-methyl-amino)-cyclohexyloxy]-5-trifluoromethyl-pyrimidin-2-ylamino}-5-methoxy-N-(1-methyl-piperidin-4-yl)-benzamide] yielded a half-maximal inhibitory concentration (IC50) of 0.31 nM. In turn, `COc1cc(C(=O)NCC2CC2)ccc1Nc1ncc(C(F)(F)F)c(O[C@@H]2Cc3ccccc3[C@H]2N(C)S(C)(=O)=O)n1` [Example 21] displayed an IC50 of 12 nM. This IC50 is about 39-fold higher than that of the molecule before. `COc1cc(C(=O)NC2CCN(C)CC2)c(F)cc1Nc1ncc(C(F)(F)F)c(O[C@@H]2CCC[C@H]2N(C)S(C)(=O)=O)n1` [Example 103, 2-fluoro-4-{4-[(1R,2R)-2-(methanesulphonyl-methyl-amino)-cyclopentyloxy]-5-trifluoromethyl-pyrimidin-2-ylamino}-5-methoxy-N-(1-methyl-piperidin-4-yl)-benzamide] displayed an IC50 of 0.28 nM.

`COc1cc(C(=O)NCCN(C)C)c(F)cc1Nc1ncc(C(F)(F)F)c(O[C@@H]2Cc3ccccc3[C@H]2NS(C)(=O)=O)n1` [Example 96] came in with an IC50 of 0.54 nM. This IC50 lies about 1.9-fold higher than the previous one. To `COc1cc(C(=O)NC2CCN(C)CC2)c(Cl)cc1Nc1ncc(C(F)(F)F)c(O[C@@H]2CCCC[C@H]2NS(C)(=O)=O)n1` [Example 93] belongs 0.42 nM. To `COc1cc(C(=O)NC2CCN(C)CC2)c(F)cc1Nc1ncc(C(F)(F)F)c(O[C@@H]2CCC[C@H]2NS(=O)(=O)C2CC2)n1` [Example 46] belongs 34 nM; to `COc1cc(C(=O)NC2CCN(C)CC2)c(F)cc1Nc1ncc(C(F)(F)F)c(O[C@@H]2Cc3ccccc3[C@H]2N(C)S(C)(=O)=O)n1` [Example 25, 2-fluoro-4-{4-[(1R,2R)-1-(methanesulphonyl-methyl-amino)-indan-2-yloxy]-5-trifluoromethyl-pyrimidin-2-ylamino}-5-methoxy-N-(1-methyl-piperidin-4-yl)-benzamide], 2 nM; to `COc1cc(C(=O)NCC(C)(C)C)c(Cl)cc1Nc1ncc(Cl)c(O[C@@H]2Cc3ccccc3[C@H]2N(C)S(C)(=O)=O)n1` [Example 39], 6 nM. For the molecule `COc1cc(C(=O)NC2CCN(C)CC2)ccc1Nc1ncc(C(F)(F)F)c(O[C@@H]2CCCC[C@H]2N(C)S(C)(=O)=O)n1` [Example 76], half-maximal inhibition (IC50) required 0.29 nM. Against the preceding molecule, the IC50 is about 21-fold lower. `COc1cc(C(=O)NC[C@@H](O)CO)ccc1Nc1ncc(C(F)(F)F)c(O[C@@H]2Cc3ccccc3[C@H]2N(C)S(C)(=O)=O)n1` [Example 50] returned an IC50 of 4 nM. This IC50 lies about 14-fold higher than the previous one. To `COc1cc(C(=O)NCCN(C)C)ccc1Nc1ncc(C(F)(F)F)c(O[C@@H]2Cc3ccccc3[C@H]2NS(C)(=O)=O)n1` [Example 95] belongs 0.56 nM.

`CNC(=O)c1ccc(Nc2ncc(C(F)(F)F)c(O[C@@H]3Cc4ccccc4[C@H]3N(C)S(C)(=O)=O)n2)c(OC)c1` [Example 17] came in with an IC50 of 13 nM. Against the preceding molecule, the IC50 is about 23-fold higher.

Molecule `COc1cc(C(=O)NC2CCN(C)CC2)c(F)cc1Nc1ncc(Cl)c(O[C@@H]2CCC[C@H]2N(C)S(C)(=O)=O)n1` [Example 85, 4-{5-chloro-4-[(1R,2R)-2-(methanesulphonyl-methyl-amino)-cyclopentyloxy]-pyrimidin-2-ylamino}-2-fluoro-5-methoxy-N-(1-methyl-piperidin-4-yl)-benzamide] registered an IC50 of 0.37 nM.

Consider `COc1cc(C(=O)NC[C@H](O)CO)c(F)cc1Nc1ncc(Cl)c(O[C@@H]2Cc3ccccc3[C@H]2N(C)S(C)(=O)=O)n1` [Example 56], for which half-maximal inhibition (IC50) was put at 9 nM. With `CS(=O)(=O)N[C@@H]1CCC[C@H]1Oc1nc(Nc2ccc3ncsc3c2)ncc1C(F)(F)F` [Example 97], it took 2 nM to reach half-maximal inhibition (IC50).

In turn, `Cc1nc2ccc(Nc3ncc(C(F)(F)F)c(O[C@@H]4CCC[C@H]4NS(C)(=O)=O)n3)cc2o1` [Example 83] returned an IC50 of 1 nM.

With `COc1cc(C(=O)NC[C@@H](O)CO)c(F)cc1Nc1ncc(C(F)(F)F)c(O[C@@H]2Cc3ccccc3[C@H]2N(C)S(C)(=O)=O)n1` [Example 64], the concentration for half-maximal inhibition (IC50) came to 6 nM. This IC50 is about 6-fold higher than that of the molecule before.

With `COc1cc(C(=O)NC2CCN(C)CC2)c(F)cc1Nc1ncc(C(F)(F)F)c(O[C@@H]2CCCC[C@H]2NS(C)(=O)=O)n1` [Example 105], the concentration for half-maximal inhibition (IC50) was found to be 0.39 nM. `COc1cc(C(=O)NN2CCN(C)CC2)c(F)cc1Nc1ncc(C(F)(F)F)c(O[C@@H]2CCC[C@H]2N(C)S(C)(=O)=O)n1` [Example 101, 2-fluoro-4-{4-[(1R,2R)-2-(methanesulphonyl-methyl-amino)-cyclopentyloxy]-5-trifluoromethyl-pyrimidin-2-ylamino}-5-methoxy-N-(4-methyl-piperazin-1-yl)-benzamide] gave an IC50 of 0.3 nM. To `COc1cc(C(=O)N[C@H]2CC[C@H](O)CC2)ccc1Nc1ncc(C(F)(F)F)c(O[C@@H]2Cc3ccccc3[C@H]2N(C)S(C)(=O)=O)n1` [Example 22] belongs 8 nM.

The values above are taken from patent publication US8466155B2, “Pyrimidines” (Boehringer Ingelheim International GmbH, priority 2009, dated 2013).
